Consider eight compounds from patent US10294457B2, “Maturation of hepatocyte-like cells derived from human pluripotent stem cells” (Takara Bio Europe AB, priority 2012, dated 2019).

The test system of data set [1] is hepatocyte-like cells derived from hES cells. Kind of data set: HNF4α TaqMan assays: HNF4α isoform expression after 9 cis-retinoic acid (Example 3). Type of data set: cell-based, human. The conditions noted are these: for expression of the adult HNF4a1-3 isoforms / expression of the fetal HNF4a4-9 isoforms: 1 or 2 μM. From the text: Three different HNF4α-TaqMan assays were used for analysis of HNF4α expression: one assay detecting all 9 HNF4α isoforms, one assay detecting isoforms 1-3 (including the adult isoforms 1 and 2) and one assay detecting isoforms 4-9 (including the fetal isoforms 7 and 8). Isoforms 3, 4, 5, 6 and 9 are not expressed at all in vivo or at very low levels and can therefore be neglected.

For data set [2], the system named is hESC-derived hepatocytes.
Protocol: Following the basic protocol A, differentiating hES cell derived hepatic progenitors and hepatocyte-like cells cultured on a Gelatin-based coating were treated with 1 μM 9-cis retinoic acid for 5, 24 or 48 hr exposures on days 21, 22 or 23 of the protocol (i.e. on day 7, 8 or 9 of the differentiation and maturation phase; FIG. 2 A, B, D), repeated 5 hr exposures on days 11, 16, 23, 25 and 30 of the protocol (i.e. on day 4 of the pre-hepatic phase and days 2, 9, 11 and 16 of the differentiation and maturation phase; FIG. 2 C), or long term/continuous treatment from day 14 and onwards (i.e.starting on day 1 of the differentiation and maturation phase; FIG. 2D).
Immediately after end of the RA treatment, the cell cultures are subjected to a CYP activity assay according to the following protocol: Cells are washed twice with warm Williams medium E w/o phenol red (+0.1% PEST). Then CYP activity assay, consisting of warm Williams medium E w/o phenol red (+0.1% PEST), 2 mM L-Glutamine, 25 mM HEPES, 26 μM Phenacetin (model substrate for CYP1A), 9 μM Diclofenac (model substrate for CYP2C9) and 3 μM Midazolam (model substrate for CYP3A), is added to the cells (e.g. 220 μl/24 well) and incubated for 16 hr at 37° C. Then supernatant is collected and centrifuged for 20 min at 10.000 rcf at 4° C. Subsequently, 120 μl of the supernatant is transferred into a 96 well plate which is sealed with a tight seal tape and stored at −20 or −80° C. until LC/MS-analysis of metabolite formation: Acetaminophen (Paracetamol) for CYP1A, OH-Diclofenac for CYP2C9 and OH-Midazolam for CYP3A.
The test system of another data set is RXR. To be noted: cited from earlier work; for affinity of binding to RXR: compared with 9-cis-retinoic acid (Heyman et al.).
The test system of data set [3] is hES cell derived hepatocyte-like cells. Kind of data set: qRT-PCR gene expression after RA treatment, basic protocol A (Example 5). Background: Quantitative PCR measures a nucleic acid by following its amplification.
Protocol: Following the basic protocol A, hES cell derived hepatocyte-like cells cultured on a Gelatin-based coating were treated with 1 μM 9-cis retinoic acid for 5 hr on day 21 of the protocol (i.e. on day 7 of the differentiation and maturation phase) or 24 hr on day 22-23 of the protocol (i.e. on day 8-9 of the differentiation and maturation phase).
Cells were harvested on day 21 or 23 of the protocol (i.e. on day 7 or 9 of the differentiation and maturation phase) and gene expression was analysed using qRT-PCR, normalised to the house-keeping gene CREBBP and the results presented as relative quantification normalised to a calibrator (FIG. 3.)
Data set [4] deals with hESC-derived hepatocytes. Kind of data set: CYP activity assay, early 5-aza-2-deoxycytidine plus late RA, Kenpaullone and matrix overlay (Example 8). To be noted: additional effect of treatment with the DNA demethylation agent on day 2-3. Type of data set: cell-based, human.
Protocol: (§1) Following the basic protocols C (hESC-derived hepatocytes) or D (hiPSC-derived hepatocytes), differentiating hES and hiPS cells in the pre-endodermal phase were treated with 10 nM of the DNA demethylating agent 5-aza-2-deoxycytidine for 24 hr on day 2 to 3 of the protocol.
(§2) Later in the protocol, hPS cell derived hepatic progenitor cells and hepatocyte-like cells cultured on a Fibronectin-based coating were treated with continuous/long term treatment with 0.2 μM 9cis-RA and 0.5 μM Kenpaullone starting on day 14 of the protocol (i.e. on day 1 of the differentiation and maturation phase) and received thin Fibronectin-Collagen I-overlays on day 14 and 16 of the protocol (i.e. on day 1 and 3 of the differentiation and maturation phase) and is refreshed thereafter once a week on day 23, 30, 37 and so on (i.e. on day 9, 16, 23 and so on of the differentiation and maturation phase).
(§3) For analysing functional expression of CYP enzymes on day 36 (i.e. on day 22 of the maturation step; FIG. 10), the cell cultures are subjected to a CYP activity assay according to the following protocol: Cells are washed twice with warm Williams medium E w/o phenol red (+0.1% PEST). […]
In data set [5] the test system is hiPSC-derived hepatocytes. The data set is described as above. Format: cell-based, human. To be noted: additional effect of treatment with the DNA demethylation agent on day 2-3.
Protocol: as §1, §2, §3
In data set [6] the test system is DE derived from hPSC lines P11032, SA181 and P11012. Description: qRT-PCR of stem cell and DE markers in DE, 5-aza-2-deoxycytidine or 5-azacytidine (Example 12). Type of data set: cell-based, human. To be noted: 10 nM 5-aza-2-deoxycytidine or 1 μM 5-azacytidine on day 2-3; day 7. As to the method: Following the basic protocols C (P11032, SA181) or D (P11012), cells derived from 3 different hPSC lines were treated with either 10 nM 5-aza-2-deoxycytidine or 1 μM 5-azacytidine on day 2-3 during the pre-endodermal phase.

The subject of the next data set is RAR. The conditions noted are these: Allenby et al.; Idres et al.; cited from earlier work.
In data set [7] the test system is hiPSC-derived hepatocytes. Kind of data set: CYP activity assay, 9cis-RA or other RXR- and RAR-agonists (Example 15). The conditions noted are these: instead of 0.2 μM 9cis-RA: 0.5 μM ATRA, 5 μM AM580, 0.2 μM 13cis-RA, 5 μM LGD1069, 5 μM LG100268 or 5 μM SR11237; with Kenpaullone, overlay, early 5-aza-2-deoxycytidine; day 36. Format: cell-based, human. How it is done: Some experimental groups were treated with 0.5 μM all trans-retinoic acid (ATRA), 5 μM AM580, 0.2 μM 13cis-RA, 5 μM LGD1069, 5 μM LG100268 or 5 μM SR11237 instead of 0.2 μM 9cis-RA.

The mark [8] stands for this setting: 24-, 48 hr-exposure and continuous RA-treatment.
Setting [9] is: 5 hr RA-exposure, day 23, analysed immediately after the exposure.
Where [10] appears, read: continuous/long-term RA treatment versus 5 and 24 hr RA exposures.

For 9-cis-retinoic acid [RA], in data set [1] (setting [8]), the “expression of the adult HNF4a1-3 isoforms” value is “slightly increase” and the “expression of the fetal HNF4a4-9 isoforms” value is listed as “slightly decrease”. In data set [1] (setting [9]), the “expression of the adult HNF4a1-3 isoforms” value is listed as “strongly increase” and the “expression of the fetal HNF4a4-9 isoforms” value is “increase”. For the same compound, in data set [1] (5 hr exposure with 1 μM RA, 7 days later), the “expression of fetal HNF4α isoform (4-9)” value is recorded as “raised over control values”. The “expression of HNF4α isoforms 1-3” value in data set [1] (5 hr exposure with 1 μM RA, 7 days later, vs untreated control cells) is “slightly lower”. In data set [1] (5 hr exposure with 1 μM RA, immediately after the exposure), the “expression of HNF4α isoforms 1-3” value was “increases”. Moreover, the “expression of HNF4α isoforms 4-9” value in data set [1] (5 hr exposure with 1 μM RA, immediately after the exposure, vs control) was “slightly lower”. Also, in data set [1] (5 hr exposures), the “ratio of HNF4a 1-3 isoforms/4-9 isoforms” value is recorded as “do not increase”. Moreover, the “ratio of HNF4a 1-3 isoforms/4-9 isoforms” value in data set [1] (24 hr and 48 hr RA-exposure and long term/continuous treatment) is reported as “increase the 1-3/4-9 ratio of hESC-derived hepatocytes to levels similar as in hp hep”. Further, in the data set with hESC-derived hepatocytes [2], the CYP1A activity entry is “strongest increase”; the “CYP1A, 2C9 and 3A activities” value was “increased”; the “CYP1A, CYP2C9 and 3A activities” value is “increase”; the “CYP1A-, 2C9- and 3A-activity” value is reported as “significant increase”. Moreover, in the data set with hESC-derived hepatocytes [2], the CYP1A-activity entry is “increase”; the CYP3A activity entry is “strongest increase”; the “effect on CYP1A and 2C9 activity” value is given as “stronger increasing effect”. For the same compound, in the data set with RXR (Allenby et al., Idres et al.), the “binding to and activation of RXR and RAR” value was “binds to and activates both RXR and RAR”. Also, the “mRNA expression of the adult hepatic gene CYP3A4” value in data set [3] (5 hr RA-exposure (1 μM) on day 21, immediately after and 2 and 7 days later (day 23 and 30)) was “increase”. Moreover, the “decrease of expression of the fetal hepatic gene CYP3A7” value in data set [3] (5 hr exposure on day 21, 2 days later on day 23) is “strongly”. The “decrease of expression of the fetal hepatic gene CYP3A7” value in data set [3] (5 hr exposure on day 21, immediately after the exposure on day 21) is on record as “slightly”. For the same compound, the “increase of mRNA expression of the adult hepatic gene PXR” value in data set [3] (5 hr exposure on day 21, measured on day 21) is on record as “not immediately after the 5 hr exposure”. For the same compound, the “mRNA expression of the adult hepatic gene PXR” value in data set [3] (5 hr exposure on day 21, measured on day 23) is “increases”. Further, the “mRNA expression of the adult hepatic gene PXR” value in data set [3] (24 hr RA-exposure on day 22-23) was “increases”. Further, the “adult CYP3A4 expression” value in data set [3] (24 hr RA-exposure on day 22-23, day 23) is “immediate up-regulation”. For the same compound, the “expression of the fetal hepatic gene CYP3A7” value in data set [3] (24 hr RA-exposure on day 22-23, immediately after the exposure on day 23) is recorded as “strongly decreases”. In [3] (setting [10]), the “fetal hepatic gene α-Fetoprotein (AFP) expression” value was “stronger down-regulation” and the “mRNA expression of the adult hepatic gene CAR” value is reported as “higher increase”.

In the case of `Nc1ncn([C@H]2C[C@H](O)[C@@H](CO)O2)c(=O)n1` [5-aza-2-deoxycytidine], the CYP2C9 activity entry (in the data set on hESC-derived hepatocytes [4]; in [5]) was “No additional increase” each time.

In the case of `Nc1ncn([C@@H]2O[C@H](CO)[C@@H](O)[C@H]2O)c(=O)n1` [5-azacytidine], in data set [6], the “Oct4 and Nanog mRNA” value is reported as “significantly decreased”; the “mRNA expression of the DE markers Sox17 and Cxcr4” value is reported as “No significant changes”.

As for `CC1=C(\C=C/C(C)=C/C=C/C(C)=C/C(=O)O)C(C)(C)CCC1` [7-cis retinoic acid], the “binding to RAR and RXR” value in the data set on RAR is listed as “specifically bind RAR, but not to RXR”.

`CC1=C(/C=C/C(C)=C/C=C\C(C)=C\C(=O)O)C(C)(C)CCC1` [11-cis-retinoic acid]: the “binding to RAR and RXR” value with RAR is listed as “specifically bind RAR, but not to RXR”. For the same compound, in the data set on RXR, the “affinity of binding to RXR” value is on record as “much lower affinity”.

On to `CC1=C(/C=C/C(C)=C/C=C/C(C)=C\C(=O)O)C(C)(C)CCC1` [13cis RA, 13-cis-retinoic acid], for which, in the data set on RAR, the “binding to RAR and RXR” value is on record as “specifically bind RAR, but not to RXR”. Also, the “affinity of binding to RXR” value with RXR was “much lower affinity”.

As for `CC1=C(/C=C/C(C)=C/C=C/C(C)=C/C(=O)O)C(C)(C)CCC1` [ATRA, all trans-retinoic acid], in data set [7], the CYP2C9 activity entry is listed as “slightly smaller increase”. In addition, the “binding to RAR and RXR” value with RAR is on record as “specifically bind RAR, but not to RXR”. For the same compound, in the data set on RXR, the “affinity of binding to RXR” value is listed as “much lower affinity”.

Consider `C=C(c1ccc(C(=O)O)cc1)c1cc2c(cc1C)C(C)(C)CCC2(C)C` [LGD1069], for which the CYP2C9 activity result in data set [7] was “slightly smaller increase”.
